Experimental data from patent US20160113919A1 (The Board of Trustees of the Leland Stanford Junior …, priority 2014, published 2016).

System: virulent Mtb strain H37Rv
Format: cell-based, Mycobacterium tuberculosis

Row | Compound | EC80 (microbicidal activity, TB replication in macrophages) [µM] | microbicidal activity compared with S-CQ or racemic CQ
1 | CCN(CC)CCCC(C)Nc1ccnc2cc(Cl)ccc12 (racemic) [racemic CQ, chloroquine] | ~10 | 
2 | CCN(CC)CCC[C@@H](C)Nc1ccnc2cc(Cl)ccc12 [R-CQ, (R)-chloroquine] | 1 | significantly higher
3 | CCN(CC)CCC[C@H](C)Nc1ccnc2cc(Cl)ccc12 [S-CQ, (S)-chloroquine] | ~10 | 
